Patent US11414416B1, “Compounds and uses thereof” (Foghorn Therapeutics Inc., priority 2019, dated 2022)

Columns and labels:
[1] = system: synovial sarcoma cell lines (SYO1, Yamato, HS-SY-II, and ASKA); experiment: Growth of synovial sarcoma cell lines (confluency, crystal violet, colonies; Example 3); type: cell-based; conditions: FIGS. 5-7, 1 μM in crystal violet assay
Description: (§1) Cells were treated with DMSO or the BRD9 degrader, Compound 1, at indicated concentrations, and proliferation was monitored from day 7 to day 14 by measuring confluency over time using an IncuCyte live cell analysis system (FIG. 5). Growth medium and compounds were refreshed every 3-4 days.
(§2) Cells were seeded into 12-well plates and treated with DMSO, 1 μM BRD9 inhibitor, Compound 2 (also known as BI-7273, see Martin et al, J Med Chem. 59(10):4462-4475 (2016); see structure of Compound 2 below), or 1 μM BRD9 degrader, Compound 1.
(§3) The number of cells was optimized for each cell line. Growth medium and compounds were refreshed every 3-5 days. SYO1, Yamato, A549, 293T and HS-SY-II cells were fixed and stained at day 11. ASKA cells were fixed and stained at day 23. Staining was done by incubation with crystal violet solution (0.5 g Crystal Violet, 27 ml 37% Formaldehyde, 100 mL 10×PBS, 10 mL Methanol, 863 dH20 to 1 L) for 30 min followed by 3× washes with water and drying the plates for at least 24 h at room temperature. Subsequently plates were scanned on an Odyssey CLx Imaging system (FIG. 6).
(§4) Cells were seeded into 96-well ultra low cluster plate (Costar, #7007) in 200 μL complete media and treated at day 2 with DMSO, Staurosporin, or BRD9 degarder, Compound 1, at indicated doses (FIG. 7). Media and compounds were changed every 5 d and cell colonies were imaged at day 14.

[2] = system: non-synovial control cancer cell lines (293T, A549, G401); experiment: Growth of non-synovial control cancer cell lines (Example 3); type: cell-based; conditions: FIGS. 5-7
Description: as §1, §2, §3, §4

[3] = system: synovial sarcoma cell lines (SYO1, HS-SY-II, and ASKA); experiment: Growth of synovial sarcoma cell lines, crystal violet day 14 (Example 4); type: cell-based; conditions: for inhibition of growth of synovial sarcoma cell lines: SYO1, HS-SY-II, ASKA, treated daily, day 14, FIG. 8
Description: (§5) Procedure: Cells were seeded into 6-well or 12-well plates and were treated daily with a BRD9 degrader (Compound 1), a bromo-domain BRD9 binder (Compound 2), E3 ligase binder (lenalidomide), DMSO, or staurosporin (positive control for cell killing), at indicated concentrations. The number of cells was optimized for each cell line. Growth media was refreshed every 5 days. By day 14, medium was removed, cells were washed with PBS, and stained using 500 μL of 0.005% (w/v) crystal violet solution in 25% (v/v) methanol for at least 1 hour at room temperature. Subsequently plates were scanned on an Odyssey CLx Imaging system.

[4] = system: non-synovial control cancer cell lines (RD, HCT116, and Calu6); experiment: Growth of non-synovial control cancer cell lines, crystal violet day 14 (Example 4); type: cell-based; conditions: treated daily, day 14, FIG. 9
Description: as §5

SYO1 cells [5] = experiment: Cell cycle analysis, Click-iT Plus EdU Flow Cytometry Assay; type: cell-based; conditions: SYO1, 200 nM or 1 μM, 8 or 13 days, compared to DMSO and lenalidomide
Description: (§6) Procedure: SYO1 cells were treated for 8 or 13 days with DMSO, a BRD9 degrader (Compound 1) at 200 nM or 1 μM, or an E3 ligase binder (lenalidomide) at 200 nM. Compounds were refreshed every 5 days. Cell cycle analysis was performed using the Click-iT™ Plus EdU Flow Cytometry Assay (Invitrogen). The apoptosis assay was performed using the Annexin V-FITC Apoptosis Detection Kit (Sigma A9210). Assays were performed according to the manufacturer's protocol.

SYO1 cells [6] = experiment: Apoptosis assay, Annexin V-FITC Apoptosis Detection Kit; type: cell-based; conditions: SYO1, 200 nM or 1 μM, 8 days, compared to DMSO controls
Description: as §6

BRD9 bromodomain = BRD9 bromodomain (Homo sapiens (Human), UniProt Q9H8M2); experiment: BRD9 bromodomain TR-FRET competition binding assay; conditions: Table 4; competition with biotinylated ligand, 3 nM Flag-BRD9, 90 minutes
Method in brief: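 TEV-cleaved Flag-BRD9 (P133-K239, 3 nM) competed against 3.75 nM biotinylated ligand, with 7.5 nM APC-streptavidin and 0.2 nM Eu-W1024 anti-FLAG, in HEPES pH 7.4, NaCl, TCEP, Tween-20, BSA. Compounds were serially diluted 3-fold; after 90 min at room temperature the 665/615 nm emission ratio was read.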

[7] = target: Nanoluciferase-BRD9 fusion protein (Homo sapiens (Human), UniProt Q9H8M2); experiment: SYO1 BRD9 NanoLuc degradation assay; type: cell-based; conditions: Table 5A, SYO-1 cells expressing 3×FLAG-NLuc-BRD9, 6 hours; for DC50: read-out: SYO1 BRD9-NanoLuc degradation IC50
Method in brief: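 Degradation was read as loss of nanoluciferase signal (Nano-Glo) after 6 h compound exposure in a stable SYO-1 line carrying 3×FLAG-NLuc-BRD9 (8000 cells/well). Normalised between DMSO (high) and a 1 μM known BRD9 degrader (low).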

Nanoluciferase-BRD9 fusion protein, sequence (Q9H8M2 whole entry, the tested form may be a part): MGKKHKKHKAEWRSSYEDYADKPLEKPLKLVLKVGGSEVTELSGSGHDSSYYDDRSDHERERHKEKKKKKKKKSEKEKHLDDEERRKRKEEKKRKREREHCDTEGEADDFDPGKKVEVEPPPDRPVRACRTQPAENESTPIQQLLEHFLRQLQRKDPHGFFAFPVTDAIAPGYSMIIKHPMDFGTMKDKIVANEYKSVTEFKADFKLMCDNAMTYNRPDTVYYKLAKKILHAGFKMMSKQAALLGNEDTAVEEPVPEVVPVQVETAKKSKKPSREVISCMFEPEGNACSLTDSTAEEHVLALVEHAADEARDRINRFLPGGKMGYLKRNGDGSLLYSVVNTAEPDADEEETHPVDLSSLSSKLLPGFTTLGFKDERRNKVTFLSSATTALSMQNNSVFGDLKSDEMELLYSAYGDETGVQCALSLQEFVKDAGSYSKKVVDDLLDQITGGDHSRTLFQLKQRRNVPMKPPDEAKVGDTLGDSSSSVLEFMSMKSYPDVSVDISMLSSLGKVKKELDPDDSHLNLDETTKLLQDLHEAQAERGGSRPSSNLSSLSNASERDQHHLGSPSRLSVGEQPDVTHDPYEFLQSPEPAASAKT
BRD9 bromodomain, sequence (Q9H8M2 133-239): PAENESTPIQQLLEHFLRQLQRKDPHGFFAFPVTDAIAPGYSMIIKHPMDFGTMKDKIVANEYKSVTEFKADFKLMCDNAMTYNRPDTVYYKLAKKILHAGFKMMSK

SMILES | IC50 (BRD9 bromodomain) | IC50 [7] | DC50 [7] | other results
COc1cc(-c2cn(C)c(=O)c3cnccc23)cc(OC)c1CN(C)CC(=O)NCCOCCOCCNc1cccc2c1C(=O)N(C1CCC(=O)NC1=O)C2=O (stereo not drawn) [Compound 1] | – | – | – | inhibition of growth of synovial sarcoma cell lines [1]: inhibition of the growth of the cells; inhibition of growth of non-synovial control cancer cell lines [2]: does not result in inhibition of the growth; inhibition of growth of synovial sarcoma cell lines [3]: inhibition of the growth of the cells; overall comparison of growth inhibition in synovial cell lines ([3]; compared with Compound 2 and lenalidomide): most significant growth inhibition; inhibition of growth of non-synovial control cancer cell lines [4]: did not result in inhibition of the growth; numbers of cells in the S-phase of the cell cycle (SYO1 cells [5]): reduced numbers of cells in the S-phase; numbers of early- and late-apoptotic cells (SYO1 cells [6]): increased numbers of early- and late-apoptotic cells
COc1cc(-c2cn(C)c(=O)c3cnccc23)cc(OC)c1CN(C)C [Compound 2] | – | – | – | inhibition of growth of synovial sarcoma cell lines [1]: inhibition of the growth of the cells; inhibition of growth of non-synovial control cancer cell lines [2]: does not result in inhibition of the growth; inhibition of growth of synovial sarcoma cell lines [3]: inhibition of the growth of the cells; inhibition of growth of non-synovial control cancer cell lines [4]: did not result in inhibition of the growth
COc1cc(-c2cn(C)c(=O)c3cnccc23)cc(OC)c1CN1CC2C1CCN2C(=O)CCOCCOc1ccc2c(c1)C(=O)N(C1CCC(=O)NC1=O)C2=O (stereo not drawn) [Compound D128] | 10 to 100 nM | < 10 nM | – | –
COc1cc(-c2cn(C)c(=O)c3cnccc23)cc(OC)c1CN1CCC(C2CCN(C(=O)CCOCCOc3ccc4c(c3)C(=O)N(C3CCC(=O)NC3=O)C4=O)C2)CC1 (stereo not drawn) [Compound D129] | < 10 nM | < 10 nM | – | –
COc1cc(-c2cn(C)c(=O)c3cnccc23)cc(OC)c1CN1CCC(OC2CCN(C(=O)CCOCCOc3ccc4c(c3)C(=O)N(C3CCC(=O)NC3=O)C4=O)C2)CC1 (stereo not drawn) [Compound D130] | < 10 nM | < 10 nM | – | –
COc1cc(-c2cn(C)c(=O)c3cnccc23)cc(OC)c1CN1CCC(OC2CCN(C(=O)CCOCCOc3ccc4c(c3)C(=O)N(C3CCC(=O)NC3=O)C4=O)CC2)CC1 (stereo not drawn) [Compound D131] | < 10 nM | < 10 nM | – | –
COc1cc(-c2cn(C)c(=O)c3cnccc23)cc(OC)c1CN1CCCC(OCc2cn(CCCOc3ccc4c(c3)C(=O)N(C3CCC(=O)NC3=O)C4=O)nn2)C1 (stereo not drawn) [Compound D151] | < 10 nM | – | 10 to 100 nM | –
COc1cc(-c2cn(C)c(=O)c3cnccc23)cc(OC)c1CN(C)C1CC2CN(C(=O)CCOCCOc3cccc4c3C(=O)N(C3CCC(=O)NC3=O)C4=O)CC2C1 (stereo not drawn) [Compound D160] | < 10 nM | – | 10 to 100 nM | –
COc1cc(-c2cn(C)c(=O)c3cnccc23)cc(OC)c1CN(C)C1CCC2CN(C(=O)CCOCCOc3cccc4c3C(=O)N(C3CCC(=O)NC3=O)C4=O)CC21 (stereo not drawn) [Compound D161] | < 10 nM | – | 10 to 100 nM | –
COc1cc(-c2cn(C)c(=O)c3cnccc23)cc(OC)c1CN(C)C1CC2CC1CN2C(=O)CCOCCOc1cccc2c1C(=O)N(C1CCC(=O)NC1=O)C2=O (stereo not drawn) [Compound D162] | 10 to 100 nM | 10 to 100 nM | – | –
COc1cc(-c2cn(C)c(=O)c3cnccc23)cc(OC)c1CN(C)CC1CC2(CCN(C(=O)CCOCCOc3ccc4c(c3)C(=O)N(C3CCC(=O)NC3=O)C4=O)CC2)O1 (stereo not drawn) [Compound D167] | < 10 nM | < 10 nM | – | –
COc1cc(-c2cn(C)c(=O)c3cnccc23)cc(OC)c1CN(C)C1CC2CN(C(=O)CCOCCOc3ccc4c(c3)C(=O)N(C3CCC(=O)NC3=O)C4=O)CC2C1 (stereo not drawn) [Compound D169] | < 10 nM | – | 10 to 100 nM | –
COc1cc(-c2cn(C)c(=O)c3cnccc23)cc(OC)c1CN(C)C1CCC2CN(C(=O)CCOCCOc3ccc4c(c3)C(=O)N(C3CCC(=O)NC3=O)C4=O)CC21 (stereo not drawn) [Compound D170] | 10 to 100 nM | < 10 nM | – | –
COc1cc(-c2cn(C)c(=O)c3cnccc23)cc(OC)c1CN(C)C1CC2CC1CN2C(=O)CCOCCOc1ccc2c(c1)C(=O)N(C1CCC(=O)NC1=O)C2=O (stereo not drawn) [Compound D171] | 10 to 100 nM | < 10 nM | – | –
COc1cc(-c2cn(C)c(=O)c3cnccc23)cc(OC)c1CN(C)C1CCC12CCN(C(=O)CCOCCOc1ccc3c(c1)C(=O)N(C1CCC(=O)NC1=O)C3=O)CC2 (stereo not drawn) [Compound D173] | 10 to 100 nM | < 10 nM | – | –
COc1cc(-c2cn(C)c(=O)c3cnccc23)cc(OC)c1CN(C)CC1CC2(C1)CN(C(=O)CCOCCOc1ccc3c(c1)C(=O)N(C1CCC(=O)NC1=O)C3=O)C2 (stereo not drawn) [Compound D174] | 10 to 100 nM | 100 to 1000 nM | – | –
COc1cc(-c2cn(C)c(=O)c3cnccc23)cc(OC)c1CN(C)CC1CC2CN(C(=O)CCOCCOc3ccc4c(c3)C(=O)N(C3CCC(=O)NC3=O)C4=O)C[C@@H]2C1 (stereo partly drawn) [Compound D176] | < 10 nM | < 10 nM | – | –

Further lines, with some results ahead:

IC50 (BRD9 bromodomain) | IC50 [7] | DC50 [7] | SMILES | other results
< 10 nM | – | 10 to 100 nM | COc1cc(-c2cn(C)c(=O)c3cnccc23)cc(OC)c1CN(C)CC1CC2(CCN(C(=O)CCOCCOc3cccc4c3C(=O)N(C3CCC(=O)NC3=O)C4=O)CC2)O1 (stereo not drawn) [Compound D159] | –
< 10 nM | – | 10 to 100 nM | COc1cc(-c2cn(C)c(=O)c3cnccc23)cc(OC)c1CN(C)CC1CC12CCN(C(=O)CCOCCOc1cccc3c1C(=O)N(C1CCC(=O)NC1=O)C3=O)CC2 (stereo not drawn) [Compound D163] | –
< 10 nM | – | 10 to 100 nM | COc1cc(-c2cn(C)c(=O)c3cnccc23)cc(OC)c1CN(C)CC1CC2(C1)CN(C(=O)CCOCCOc1cccc3c1C(=O)N(C1CCC(=O)NC1=O)C3=O)C2 (stereo not drawn) [Compound D164] | –
10 to 100 nM | 10 to 100 nM | – | COc1cc(-c2cn(C)c(=O)c3cnccc23)cc(OC)c1CN(C)CC1CC2(CCN(C(=O)CCOCCOc3cccc4c3C(=O)N(C3CCC(=O)NC3=O)C4=O)CC2)C1 (stereo not drawn) [Compound D165] | –
< 10 nM | – | 10 to 100 nM | COc1cc(-c2cn(C)c(=O)c3cnccc23)cc(OC)c1CN(C)CC1CC2CN(C(=O)CCOCCOc3cccc4c3C(=O)N(C3CCC(=O)NC3=O)C4=O)C[C@@H]2C1 (stereo partly drawn) [Compound D166] | –
< 10 nM | – | 10 to 100 nM | COc1cc(-c2cn(C)c(=O)c3cnccc23)cc(OC)c1CN(C)CC1CC12CCN(C(=O)CCOCCOc1ccc3c(c1)C(=O)N(C1CCC(=O)NC1=O)C3=O)CC2 (stereo not drawn) [Compound D172] | –
10 to 100 nM | 10 to 100 nM | – | COc1cc(-c2cn(C)c(=O)c3cnccc23)cc(OC)c1CN(C)CC1CC2(CCN(C(=O)CCOCCOc3ccc4c(c3)C(=O)N(C3CCC(=O)NC3=O)C4=O)CC2)C1 (stereo not drawn) [Compound D175] | –
< 10 nM | – | 10 to 100 nM | COc1cc(-c2cn(C)c(=O)c3cnccc23)cc(OC)c1CN(C)CC1CC2CN(C(=O)CCOCCOc3cccc4c3C(=O)N(C3CCC(=O)NC3=O)C4=O)C[C@H]2C1 (stereo partly drawn) [Compound D177] | –
